Source: PMC8828861 (Communications Biology, 2022)

Assays:
[1] = target: M. tuberculosis Rho (MtbRho) (Mycobacterium tuberculosis, UniProt P9WHF3); assay type: binding
[2] = target: the molecule itself; assay: SEC-MALS

Sequence of M. tuberculosis Rho (MtbRho) (P9WHF3 whole entry): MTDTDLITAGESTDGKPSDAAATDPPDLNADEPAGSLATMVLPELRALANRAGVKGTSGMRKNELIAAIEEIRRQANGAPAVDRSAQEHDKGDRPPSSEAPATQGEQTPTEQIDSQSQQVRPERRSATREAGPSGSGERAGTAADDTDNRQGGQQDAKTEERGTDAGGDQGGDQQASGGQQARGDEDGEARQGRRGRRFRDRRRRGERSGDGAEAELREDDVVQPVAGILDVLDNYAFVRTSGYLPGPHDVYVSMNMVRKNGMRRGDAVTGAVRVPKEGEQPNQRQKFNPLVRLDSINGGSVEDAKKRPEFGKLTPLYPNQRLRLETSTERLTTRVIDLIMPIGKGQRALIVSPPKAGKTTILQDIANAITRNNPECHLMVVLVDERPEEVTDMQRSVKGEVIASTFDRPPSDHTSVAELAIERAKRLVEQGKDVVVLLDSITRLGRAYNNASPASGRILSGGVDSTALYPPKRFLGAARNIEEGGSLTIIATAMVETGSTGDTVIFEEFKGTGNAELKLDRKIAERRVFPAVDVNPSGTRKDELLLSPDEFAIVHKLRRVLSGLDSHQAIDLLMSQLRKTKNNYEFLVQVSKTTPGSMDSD

## Nc1ncnc2c1ncn2[C@@H]1O[C@H](COP(=O)(O)OP(=O)(O)OP(=O)(O)O)[C@@H](O)[C@H]1O [ATP]
[1]
  cryo-EM structure, 3.3 Å, 6 ATP per hexamer: clear electron density in all the ATPase pockets of MtbRho reveals that ATP ligands are held by a network

B1: Mycobacterium tuberculosis transcription termination factor Rho (enzyme)
chain: TDTDLITAGESTDGKPSDAAATDPPDLNADEPAGSLATMVLPELRALANRAGVKGTSGMRKNELIAAIEEIRRQANGAPAVDRSAQEHDKGDRPPSSEAPATQGEQTPTEQIDSQSQQVRPERRSATREAGPSGSGERAGTAADDTDNRQGGQQDAKTEERGTDAGGDQGGDQQASGGQQARGDEDGEARQGRRGRRFRDRRRRGERSGDGAEAELREDDVVQPVAGILDVLDNYAFVRTSGYLPGPHDVYVSMNMVRKNGMRRGDAVTGAVRVPKEGEQPNQRQKFNPLVRLDSINGGSVEDAKKRPEFGKLTPLYPNQRLRLETSTERLTTRVIDLIMPIGKGQRALIVSPPKAGKTTILQDIANAITRNNPECHLMVVLVDERPEEVTDMQRSVKGEVIASTFDRPPSDHTSVAELAIERAKRLVEQGKDVVVLLDSITRLGRAYNNASPASGRILSGGVDSTALYPPKRFLGAARNIEEGGSLTIIATAMVETGSTGDTVIFEEFKGTGNAELKLDRKIAERRVFPAVDVNPSGTRKDELLLSPDEFAIVHKLRRVLSGLDSHQAIDLLMSQLRKTKNNYEFLVQVSKTTPGSMDSD
notes: also called MtbRho; WT MtbRho
[2]
  stoichiometry N: 6
